For series [1], the system named is HL-60. Put plainly: Induction of cell cycle arrest in human HL60 cells assessed as accumulation at G1 phase at 50 uM after 24 hrs by propidium iodide staining based flow cytometry (reference value: 32%). Type of series: functional. Background: A flow cytometer gives signals particle by particle.
In a further series the test system is HT-29. Put plainly: Growth inhibition of human HT-29 cells after 48 hrs by MTT assay. It is filed as functional, cell-based. In general terms: Tetrazolium dyes change colour on reduction, which living cells bring about.
A short description of series [2]: Growth inhibition of human HL60 cells after 48 hrs by MTT assay. It is filed as functional, cell-based, HL-60.
In series [3] the test system is HL-60. In words: Induction of apoptosis in human HL60 cells after 24 to 48 hrs by acridine orange and ethidium bromide staining based fluorescence microscopy. It is filed as functional, cell-based. The following applies: Homo sapiens, HL-60; read-out: AC50.
Series [4] addresses T1, Histone deacetylase (Homo sapiens) (UniProt Q13547+O15379+Q9UBN7+Q92769+Q9UQL6+Q8WUI4+Q9BY41+Q96DB2+P56524+Q9UKV0+Q969S8). Put plainly: Inhibition of HDAC in human HL60 cells assessed as increase in histone H3 acetylation at 10 and 100 uM after 24 hrs by Western blotting method. Type of series: cell-based. The settings on record: HL-60. Background: A western blot detects proteins with antibodies after separation by electrophoresis.

Another series concerns HuT78. In words: Growth inhibition of human HUT78 cells after 48 hrs by MTT assay. Type of series: functional, cell-based.
The test system of another series is MCF7. In words: Growth inhibition of human MCF7 cells after 48 hrs by MTT assay. It is filed as functional, cell-based.
Series [5] addresses T1, Histone deacetylase (Homo sapiens). In words: Inhibition of HDAC in human HL60 cells assessed as increase in p21 expression at 50 uM after 24 hrs by flow cytometry. Type of series: cell-based. The following applies: HL-60.
For the next series, the system named is HeLa. Put plainly: Growth inhibition of human HeLa cells after 48 hrs by MTT assay. Type of series: functional, cell-based.
For series [6], the system named is HL-60. In words: Induction of cell cycle arrest in human HL60 cells assessed as accumulation at G2M phase at 50 uM after 24 hrs by propidium iodide staining based flow cytometry (reference value: 12%). It is filed as functional.
The target in series [7] is T2, Ribonucleotide reductase (Homo sapiens) (UniProt P23921+Q7LG56). In words: Inhibition of human recombinant ribonucleotide reductase at 0.1 mM. It is filed as protein-complex assay.
A short description of series [8]: Half life in pH 7.4 isotonic sodium phosphate buffer at 37 degC by HPLC-DAD-ESI-MS method. It is filed as physicochemical.
Series [9] has as its target T2, Ribonucleotide reductase (Homo sapiens). In words: Inhibition of ribonucleotide reductase in human HL60 cells assessed as intracellular dNTP pools level at 50 uM after 1 hr by HPLC method. It is filed as cell-based. The settings on record: HL-60.
The next series has as its system K562. Put plainly: Growth inhibition of human K562 cells after 48 hrs by MTT assay. It is filed as functional, cell-based.
For series [10], the system named is HL-60. In words: Induction of cell cycle arrest in human HL60 cells assessed as accumulation at S phase at 50 uM after 24 hrs by propidium iodide staining based flow cytometry (reference value: 54%). It is filed as functional.
Series [11] can be described thus: Half life in RPMI-1640 medium containing 10% fetal calf serum assessed as compound disappearance by HPLC-DAD-ESI-MS method. Type of series: ADME, Bos taurus. The settings on record: cattle.
Series [12] relates to HL-60. In words: Induction of ROS generation in human HL60 cells at 2 and 5 mM after 24 hrs by DCFH-DA staining based flow cytometry. It is filed as functional, cell-based.
The nature of series [13]: Growth inhibition of human Caco2 cells after 48 hrs by MTT assay. It is filed as functional, cell-based, Caco-2.
Series [14] deals with HL-60. Put plainly: Cytotoxicity against human HL60 cells at 20 to 100 uM after 24 to 48 hrs in presence of 2 mM VPA by trypan blue dye exclusion method. It is filed as functional, cell-based.
In series [15] the test system is HL-60. In words: Induction of cell cycle arrest in human HL60 cells assessed as accumulation at S phase at 20 uM after 24 hrs by propidium iodide staining based flow cytometry (reference value: 54%). Type of series: functional.
Series [16] has as its system HL-60. In words: Induction of apoptosis in human HL60 cells at 20 uM in presence of 1 mM VPA after 24 to 48 hrs by acridine orange and ethidium bromide staining based fluorescence microscopy. Type of series: functional, cell-based.
Series [17] deals with HL-60. In words: Induction of cell cycle arrest in human HL60 cells assessed as accumulation at G1 phase at 20 uM after 24 hrs by propidium iodide staining based flow cytometry (reference value: 32%). Type of series: functional.
Series [18] has as its system HL-60. Put plainly: Induction of cell cycle arrest in human HL60 cells assessed as accumulation at S phase at 20 uM in presence of 2 mM VPA after 24 hrs by propidium iodide staining based flow cytometry (reference value: 54%). It is filed as functional.
For series [19], the system named is HL-60. Put plainly: Induction of cell cycle arrest in human HL60 cells assessed as accumulation at G2M phase at 20 uM after 24 hrs by propidium iodide staining based flow cytometry (reference value: 12%). Type of series: functional.
For series [20], the system named is HL-60. In words: Induction of cell cycle arrest in human HL60 cells assessed as accumulation at G1 phase at 20 uM in presence of 2 mM VPA after 24 hrs by propidium iodide staining based flow cytometry (reference value: 32%). It is filed as functional.
Series [21] deals with HL-60. Put plainly: Cytotoxicity against human HL60 cells at 20 to 100 uM after 24 to 48 hrs in presence of 1 mM VPA by trypan blue dye exclusion method. Type of series: functional, cell-based.
Series [22] concerns HL-60. Put plainly: Induction of apoptosis in human HL60 cells at 20 uM in presence of 2 mM VPA after 24 to 48 hrs by acridine orange and ethidium bromide staining based fluorescence microscopy. It is filed as functional.
Series [23] is described as follows: Cytotoxicity against human HL60 cells after 24 to 48 hrs by trypan blue dye exclusion method. It is filed as functional, cell-based. The settings on record: HL-60.
For series [24], the system named is HL-60. Put plainly: Induction of cell cycle arrest in human HL60 cells assessed as accumulation at G2M phase at 20 uM in presence of 2 mM VPA after 24 hrs by propidium iodide staining based flow cytometry (reference value: 12%). It is filed as functional.
For series [25], the system named is HL-60. In words: Induction of cell cycle arrest in human HL60 cells assessed as accumulation at G2M phase at 0.5 mM after 24 hrs by propidium iodide staining based flow cytometry (reference value: 12%). It is filed as functional.
Series [26] deals with HL-60. Put plainly: Induction of cell cycle arrest in human HL60 cells assessed as accumulation at G1 phase at 0.5 mM after 24 hrs by propidium iodide staining based flow cytometry (reference value: 32%). It is filed as functional.
For series [27], the system named is HL-60. Put plainly: Induction of cell cycle arrest in human HL60 cells assessed as accumulation at S phase at 0.5 mM after 24 hrs by propidium iodide staining based flow cytometry (reference value: 54%). It is filed as functional.
Series [28] deals with HL-60. In words: Induction of cell cycle arrest in human HL60 cells assessed as accumulation at S phase at 2 mM after 24 hrs by propidium iodide staining based flow cytometry (reference value: 54%). Type of series: functional.
The subject of series [29] is HL-60. Put plainly: Induction of cell cycle arrest in human HL60 cells assessed as accumulation at G2M phase at 5 mM after 24 hrs by propidium iodide staining based flow cytometry (reference value: 12%). It is filed as functional.
Series [30] has as its system HL-60. In words: Induction of ROS generation in human HL60 cells at 50 and 100 uM after 24 hrs by DCFH-DA staining based flow cytometry. Type of series: functional, cell-based.
Series [31] relates to HL-60. Put plainly: Induction of cell cycle arrest in human HL60 cells assessed as accumulation at S phase at 5 mM after 24 hrs by propidium iodide staining based flow cytometry (reference value: 54%). Type of series: functional.
In series [32] the test system is HL-60. Put plainly: Induction of cell cycle arrest in human HL60 cells assessed as accumulation at G1 phase at 2 mM after 24 hrs by propidium iodide staining based flow cytometry (reference value: 32%). Type of series: functional.
For series [33], the system named is HL-60. Put plainly: Induction of cell cycle arrest in human HL60 cells assessed as accumulation at G1 phase at 5 mM after 24 hrs by propidium iodide staining based flow cytometry (reference value: 32%). It is filed as functional.
Series [34] deals with T1, Histone deacetylase (Homo sapiens). In words: Inhibition of HDAC in human HL60 cells assessed as increase in histone H3 acetylation at 1 mM after 24 hrs by Western blotting method. Type of series: cell-based. The settings on record: HL-60.
Series [35] relates to HL-60. In words: Induction of cell cycle arrest in human HL60 cells assessed as accumulation at G2M phase at 2 mM after 24 hrs by propidium iodide staining based flow cytometry (reference value: 12%). It is filed as functional.
Where [36] appears, read: Homo sapiens, HT-29, 48 h, read-out: IC50.
The mark [37] stands for this setting: Homo sapiens, HL-60, 48 h, read-out: IC50.
Setting [38] is: Homo sapiens, HuT78, 48 h, read-out: IC50.
[39] abbreviates: Homo sapiens, MCF7, 48 h, read-out: IC50.
Setting [40] is: Homo sapiens, HeLa, 48 h, read-out: IC50.
Setting [41] is: Homo sapiens, K562, 48 h, read-out: IC50.
Where [42] appears, read: Homo sapiens, Caco-2, 48 h, read-out: IC50.

Activity calls are given as the source filed them. The rule behind the calls is not given here.

`CCCC(CCC)C(=O)OC[C@H]1O[C@@H](n2cnc3c(N)ncnc32)[C@H](OC(=O)C(CCC)CCC)[C@]1(C)O`: the Activity in the series on HL-60 [1] worked out at 71%; with HL-60 [6], 0%; in the series with HL-60 [10], 29%. Moreover, the IC50 – broadly, the concentration at which inhibition is half-maximal – with HT-29 (setting [36]) stood at 54.6 µM; in [2] (setting [37]) it was 16.3 µM; in the series with HuT78 (setting [38]) it was 30 µM; in the series on MCF7 (setting [39]), 57.8 µM; with HeLa (setting [40]) it was 54.4 µM; in the series with K562 (setting [41]) it was 51.9 µM. Further, the half-maximal inhibitory concentration (IC50) in series [13] (setting [42]) came to 55.1 µM. The AC50 – broadly, the concentration at which the activity in the assay is half-maximal – in the series with HL-60 [3] was 140 µM. For the same compound, the inhibition entry in series [4], in [5], in series [7] and in series [9] was “inactive” each time. In addition, the half-life in [8] and in [11] was over 72 h in each case. Also, the outcome in the series with HL-60 [12] was inactive.
`C[C@@]1(O)[C@@H](CO)O[C@@H](n2cnc3c(N)ncnc32)[C@@H]1O`: the outcome in the series on HL-60 [14] and in the series on HL-60 [16] was Active. The IC50 with HT-29 (setting [36]) turned out to be 26.1 µM; in [2] (setting [37]) it was 15.6 µM; with HuT78 (setting [38]), 17.3 µM; with MCF7 (setting [39]), 22.4 µM; with HeLa (setting [40]), 23.3 µM; with K562 (setting [41]), 9.4 µM. Also, the values for the IC50 in series [13] (setting [42]) and in series [23] were 24.3 µM and 15 µM, respectively. For the same compound, the Activity in the series with HL-60 [15] stood at 60%; in the series with HL-60 [17], 31%; with HL-60 [18], 61%; with HL-60 [19], 9%; in the series on HL-60 [20], 28%; in the series on HL-60 [22], 90%. Further, the Activity in the series on HL-60 [24] amounted to 11%. In addition, in the series with HL-60 [3], the AC50 is 75 µM. Also, the outcome with HL-60 [21] was inactive. Besides, the half-life – broadly, the time in which the quantity being followed falls by half – in series [11] is 43.5 h.
As to `NC(=O)NO` [HYDROXYUREA], the values for the Activity in the series with HL-60 [25], with HL-60 [26] and in the series with HL-60 [27] were 7%, 86% and 7%, respectively.
As for `CCCC(CCC)C(=O)Nc1ncnc2c1ncn2[C@@H]1O[C@H](COC(=O)C(CCC)CCC)[C@@](C)(O)[C@H]1OC(=O)C(CCC)CCC`, the IC50 result (in the series on HT-29 (ht-29); in series [2] (hl-60); in the series with HuT78 (hut78); with MCF7 (mcf7); in the series on HeLa (hela); in the series on K562 (k562)) was “ND(Insoluble)” throughout. Also, in [13] (caco-2), the IC50 entry is on record as “ND(Insoluble)”.
For `CCCC(CCC)C(=O)O` [VALPROIC ACID], the Activity is 8% with HL-60 [28]; 55% with HL-60 [29]; 5% in the series with HL-60 [31]; 78% in the series with HL-60 [32]; 39% in the series on HL-60 [33]; 14% with HL-60 [35]. For the same compound, the IC50 with HT-29 (setting [36]) was over 1000 µM; in series [2] (setting [37]), 1700 µM; in the series on HuT78 (setting [38]) it was 1800 µM; in the series with MCF7 (setting [39]), 230 µM; in the series on HeLa (setting [40]), 1000 µM; in the series on K562 (setting [41]), over 1000 µM. The half-maximal inhibitory concentration (IC50) in series [13] (setting [42]) was over 1000 µM; in series [23] it was 1700 µM. In addition, the outcome in the series on HL-60 [30] was inactive. The AC50 with HL-60 [3] came to 2500 µM. Besides, the inhibition entry in series [34] was “Active”.

These data come from ChEMBL document CHEMBL3351354, “From the covalent linkage of drugs to novel inhibitors of ribonucleotide reductase: synthesis and biological evaluation of valproic esters of 3'-C-methyladenosine” (Bioorg Med Chem Lett, 2014).
